The record followed here is PMC10984466, “Structure-based identification of salicylic acid derivatives as malarial threonyl tRNA-synthetase inhibitors” (PLOS ONE, 2024).

For this assay, the target named is T1, PfThrRS (Plasmodium falciparum, UniProt Q8IIA4).
T1 construct: made in house; host or cells: E. coli BL21(DE3)
T1 sequence (Q8IIA4 21-1013): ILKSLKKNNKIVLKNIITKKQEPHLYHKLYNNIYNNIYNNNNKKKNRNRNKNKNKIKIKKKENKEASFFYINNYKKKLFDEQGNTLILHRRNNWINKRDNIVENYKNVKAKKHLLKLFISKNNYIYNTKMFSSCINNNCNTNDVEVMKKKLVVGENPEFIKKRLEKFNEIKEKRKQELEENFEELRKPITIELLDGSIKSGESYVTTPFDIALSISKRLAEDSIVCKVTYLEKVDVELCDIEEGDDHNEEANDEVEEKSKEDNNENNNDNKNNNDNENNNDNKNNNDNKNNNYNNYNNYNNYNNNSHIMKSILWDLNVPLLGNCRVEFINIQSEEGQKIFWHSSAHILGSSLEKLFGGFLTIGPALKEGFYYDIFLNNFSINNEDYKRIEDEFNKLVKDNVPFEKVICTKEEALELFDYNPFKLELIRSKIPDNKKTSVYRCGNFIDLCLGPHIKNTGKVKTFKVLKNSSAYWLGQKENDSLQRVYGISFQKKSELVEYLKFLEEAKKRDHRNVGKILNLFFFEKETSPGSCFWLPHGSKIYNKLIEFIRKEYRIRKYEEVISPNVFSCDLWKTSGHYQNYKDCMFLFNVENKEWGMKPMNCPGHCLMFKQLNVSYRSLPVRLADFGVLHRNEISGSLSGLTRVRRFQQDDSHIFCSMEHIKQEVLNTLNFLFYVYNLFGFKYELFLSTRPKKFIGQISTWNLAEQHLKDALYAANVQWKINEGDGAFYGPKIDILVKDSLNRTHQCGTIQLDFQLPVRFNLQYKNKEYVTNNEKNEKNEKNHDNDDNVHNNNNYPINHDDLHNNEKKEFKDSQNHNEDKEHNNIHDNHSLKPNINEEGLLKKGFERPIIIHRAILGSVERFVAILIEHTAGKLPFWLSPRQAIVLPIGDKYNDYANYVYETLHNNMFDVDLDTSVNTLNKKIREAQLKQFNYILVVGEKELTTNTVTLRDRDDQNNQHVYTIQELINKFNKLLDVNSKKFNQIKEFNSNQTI
As to the kind of experiment: In vitro PfThrRS inhibition assay (aminoacylation activity, ATP consumption by Kinase-Glo luminescence). The settings on record: for LE (ligand efficiency): PfThrRS inhibitors, Fig 4 and text. It is filed as biochemical. On the procedure: The bioassay protocol was adapted from the literature. The aminoacylation activity of PfThrRS in the presence of compounds was determined by measuring ATP consumption in the enzymatic reaction by using recombinant PfThrRS and P. falciparum cell extract as a source of t-RNA. ATP consumption was determined by Kinase-Glo® Reagent (Promega Inc.). The luminescence was read on a Tecan Infinite M1000 microplate reader. The inhibitory rate was measured in three independent assays. Borrelidin was obtained from commercial sources and used as a reference compound.
On the technique in general: Kinase-Glo reads ATP consumption through a luciferase reaction.

The mark [1] stands for this setting: Table SI3, zinc ion binding group, fraction of PfThrRS inhibited at 100 µM, read-out: ThrRS inhibition @100 µM, %.
Setting [2] is: Table SI1, adenosine binding subsite substituent.
[3] abbreviates: Table SI1, adenosine binding subsite substituent, fraction of PfThrRS inhibited at 100 µM, read-out: ThrRS inhibition @100 µM, %.
Setting [4] is: Table SI2, arginine binding group, fraction of PfThrRS inhibited at 100 µM, read-out: ThrRS inhibition @100 µM, %.

Read-outs that look alike come from different tables or passages of the source.

As usually defined, the inhibition is the percentage by which the read-out fell short of the control. Take `COc1ccc(S(=O)(=O)Nc2ccccc2)cc1C(=O)O` [7e]: the inhibition at 100 µM under setting [1] was determined as 11 ± 7%.
A word on the IC50: it is the concentration needed to halve the response being measured. As to `O=C(O)c1cc(S(=O)(=O)Nc2ccc(Cc3ccccc3)cc2)ccc1O` [7q, 5-(N-(4-benzylphenyl)sulfamoyl)-2-hydroxybenzoic acid], under setting [2], the IC50 came to 55 ± 3 µM. The inhibition at 100 µM under setting [3] was determined as 67 ± 11%.
Turning to `O=C(c1ccn(-c2ccc(F)cc2)n1)N1CCC(O)(C(=O)O)C1` (stereo not drawn) [compound 10], the “LE (ligand efficiency)” value was 0.29. This compound also showed an IC50 (verified HTVS hits, Fig 4) of 19 ± 2 µM.
The like results for `Cc1nc2cc(NC(=O)C3C4C=CC(C4)C3C(=O)O)ccc2o1` (stereo not drawn) [compound 11] were, in that order, 0.27 and 39 ± 4 µM.
On to `O=C(O)c1cc(S(=O)(=O)Nc2ccccc2)ccc1S` [7d, 2-Mercapto-5-(N-phenylsulfamoyl)benzoic acid], for which, under setting [1], the inhibition at 100 µM was 16 ± 11%.
`O=C(O)c1cc(S(=O)(=O)Nc2cc(Cl)ccc2Oc2ccccc2)ccc1O` [7l] had an IC50 under setting [2] of 32 ± 2 µM. In addition, the inhibition at 100 µM under setting [3] worked out at 100%.
Take `O=C(O)c1cc(C(Nc2ccccc2)C(=O)O)ccc1O` (stereo not drawn) [7i, 5-(Carboxy(phenylamino)methyl)-2-hydroxybenzoic acid]: under setting [4], the inhibition at 100 µM worked out at 0%.
Consider `COC(=O)c1cc(S(=O)(=O)Nc2ccccc2)ccc1O` [7b, Methyl 2-hydroxy-5-(N-phenylsulfamoyl)benzoate], for which the inhibition at 100 µM under setting [1] came to 19 ± 8%.
For `O=C(O)c1cc(C2CCN(C(=O)C[C@H]3CCCCO3)CC2)no1` [compound 13], the “LE (ligand efficiency)” value was determined as 0.26. The compound also showed an IC50 (verified HTVS hits, Fig 4) of 65 ± 5 µM.
`O=C(O)c1cc(S(=O)(=O)Nc2ccc3oc(=O)sc3c2)ccc1O` [7u] showed an IC50 under setting [2] of 89 ± 4 µM. Also, the inhibition at 100 µM under setting [3] stood at 58%.
`COc1cccc(-c2cccc(NS(=O)(=O)c3ccc(O)c(C(=O)O)c3)c2)c1` [7p, 2-Hydroxy-5-(N-(3’-methoxy-[1,1’-biphenyl]-3-yl)sulfamoyl)benzoic acid] returned an IC50 under setting [2] of 46 ± 3 µM. Further, the inhibition at 100 µM under setting [3] is 80 ± 9%.
As to `Cc1csc2ncc(C(=O)N[C@H]3Cc4ccc(C(=O)O)cc4C3)n12` [compound 14], the “LE (ligand efficiency)” value is recorded as 0.25. For the same compound, the midpoint of inhibition (verified HTVS hits, Fig 4), the IC50, lay at 49 ± 5 µM.
In the case of `O=C(NO)c1cc(S(=O)(=O)Nc2ccccc2)ccc1O` [7c, N,2-dihydroxy-5-(N-phenylsulfamoyl)benzamide], under setting [1], the inhibition at 100 µM stood at 16 ± 7%.
Same read-out and setting: for `O=C(O)c1cccc(S(=O)(=O)Nc2ccccc2)c1` [7f] the value was 2 ± 4%.
As for `O=C(O)CCc1nc2c(O)nc(SCc3ccccc3F)[nH]c-2nc1=O` [compound 12], the “LE (ligand efficiency)” value was determined as 0.27. For the same compound, 12.1 ± 1.6 µM corresponded to half-maximal inhibition (verified HTVS hits, Fig 4) (IC50).
Turning to `O=C(O)c1cc(S(=O)(=O)Nc2ccc(Cl)cc2)ccc1O` [7w], the inhibition at 100 µM under setting [3] was found to be 31 ± 10%.
Under setting [2], `Cc1ccc(NS(=O)(=O)c2ccc(O)c(C(=O)O)c2)cc1` [7s] had an IC50 of 67 ± 3 µM. For the same compound, the inhibition at 100 µM under setting [3] came out at 63%.
As to `O=C(O)c1cc(S(=O)(=O)Nc2ccc(Oc3ccccc3)cc2)ccc1O` [LVV-455], the inhibition at 100 µM under setting [3] was found to be 35 ± 11%.
As to `O=C(O)CCS(=O)(=O)c1ccc2c(c1)OCCCO2` [compound 9], the “LE (ligand efficiency)” value was determined as 0.30. Also, the concentration for half-maximal inhibition (IC50) (verified HTVS hits, Fig 4) is 75 ± 5 µM.
For the compound `CCCCC[C@H](O)CC[C@@H]1[C@H]2Cc3cccc(OCC(=O)O)c3C[C@H]2C[C@H]1O` [compound 15, Remodulin, reference compound], the “LE (ligand efficiency)” value is listed as 0.25. Where the note is “verified HTVS hits, Fig 4”, this compound yielded an IC50 of 12.5 ± 1.5 µM.
As for `Cc1c(C(=O)O)nnn1-c1sc2c(c1C(=O)O)CCCC2` [compound 8], the “LE (ligand efficiency)” value was 0.33. The compound further displayed an IC50 (verified HTVS hits, Fig 4) of 10.3 ± 1.2 µM.
For `O=C(O)CC(O)(Cc1ccccc1)c1ccc(O)c(C(=O)O)c1` (stereo not drawn) [7h, 5-(1-Carboxy-2-hydroxy-3-phenylpropan-2-yl)-2-hydroxybenzoic acid], under setting [4], the inhibition at 100 µM was determined as 10 ± 8%.
`O=C(Nc1cccc(C(F)(F)F)c1)c1cccc(NS(=O)(=O)c2ccc(O)c(C(=O)O)c2)c1` [7k] gave an IC50 under setting [2] of 31 ± 2 µM. The inhibition at 100 µM under setting [3] is 100%.
In the case of `O=C(O)c1cc(S(=O)(=O)Nc2ccc(Oc3ccccc3)cc2)ccc1O` [7t, 2-Hydroxy-5-(N-(4-phenoxyphenyl)sulfamoyl)benzoic acid], the inhibition at 100 µM (100 μM compound, Figs 6, 8, 12, read-out: PfThrRS inhibition @100 μM, %) came out at 58 ± 9%.
In the case of `O=C(O)c1cc(S(=O)(=O)Nc2ccc(Br)cc2)ccc1O` [7o], the IC50 under setting [2] was 32 ± 2 µM. For the same compound, the inhibition at 100 µM under setting [3] worked out at 84%.
Under setting [2], `O=C(O)c1cc(S(=O)(=O)Nc2ccc(I)cc2)ccc1O` [7n] showed an IC50 of 46 ± 2 µM. Further, the inhibition at 100 µM under setting [3] is 88%.
`CCCCc1ccc(NS(=O)(=O)c2ccc(O)c(C(=O)O)c2)cc1` [7m] displayed an IC50 under setting [2] of 31 ± 2 µM. In addition, under setting [3], the inhibition at 100 µM worked out at 93%.
Under setting [2], `O=C(O)c1cc(S(=O)(=O)Nc2cccc3ccccc23)ccc1O` [7v] came in with an IC50 of 84 ± 4 µM. The inhibition at 100 µM under setting [3] came out at 57%.
As to `O=C(O)c1cc(S(=O)(=O)Nc2ccccc2)ccc1F` [7g], under setting [1], the inhibition at 100 µM amounted to 0%.
As for `O=C(O)c1cc(S(=O)(=O)Nc2cccc(Cl)c2)ccc1O` [7r], the IC50 under setting [2] turned out to be 76 ± 4 µM. In addition, under setting [3], the inhibition at 100 µM worked out at 64%.
`O=C(O)c1cc(S(=O)(=O)c2ccccc2)ccc1O` [7j, 2-Hydroxy-5-(phenylsulfonyl)benzoic acid]: the inhibition at 100 µM under setting [4] came to 11 ± 10%.
Turning to `O=C(O)c1cc(S(=O)(=O)Nc2ccccc2)ccc1O` [7a, 2-Hydroxy-5-(N-phenylsulfamoyl)benzoic acid], the “LE (ligand efficiency)” value (listed as 7) amounted to 0.34. Also, the IC50 under setting [2] came out at 13.1 ± 1.4 µM. Further, the inhibition at 100 µM under setting [3] was 100%.
Take `O=C(O)c1cc(S(=O)(=O)Nc2cccc(-c3ccccc3)c2)ccc1O` [7x, 5-(N-([1,1’-biphenyl]-3-yl)sulfamoyl)-2-hydroxybenzoic acid]: the inhibition at 100 µM under setting [3] was found to be 7 ± 1%.
